Target: T1, IκB kinase alpha (IKKα) (Homo sapiens, UniProt O15111)
T1 construct: gene CHUK
T1 sequence (O15111 1-745): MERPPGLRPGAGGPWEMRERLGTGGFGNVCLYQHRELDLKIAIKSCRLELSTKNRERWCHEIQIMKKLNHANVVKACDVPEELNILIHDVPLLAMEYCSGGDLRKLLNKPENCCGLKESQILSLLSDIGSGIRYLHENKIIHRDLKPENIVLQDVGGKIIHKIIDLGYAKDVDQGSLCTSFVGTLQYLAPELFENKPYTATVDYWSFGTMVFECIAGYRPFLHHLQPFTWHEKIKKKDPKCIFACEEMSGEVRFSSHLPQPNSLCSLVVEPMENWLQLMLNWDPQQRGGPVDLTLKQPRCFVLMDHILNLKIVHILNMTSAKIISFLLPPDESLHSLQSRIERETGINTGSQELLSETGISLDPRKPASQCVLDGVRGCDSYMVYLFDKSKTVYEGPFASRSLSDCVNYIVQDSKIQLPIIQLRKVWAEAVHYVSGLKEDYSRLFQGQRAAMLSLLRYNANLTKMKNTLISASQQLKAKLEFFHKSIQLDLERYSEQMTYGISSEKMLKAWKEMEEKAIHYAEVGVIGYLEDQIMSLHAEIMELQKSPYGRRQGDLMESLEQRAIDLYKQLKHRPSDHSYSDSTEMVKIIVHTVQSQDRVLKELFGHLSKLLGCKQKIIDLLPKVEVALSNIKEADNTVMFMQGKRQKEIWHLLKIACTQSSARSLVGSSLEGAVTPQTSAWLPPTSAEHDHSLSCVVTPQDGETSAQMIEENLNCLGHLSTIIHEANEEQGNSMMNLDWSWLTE
Experiment: target engagement in PC3m cells by pharmacodynamic markers (p100 phosphorylation; RelB nuclear translocation), data not shown
Format: cell-based

IC50: 50 nM
Substance: SU1644
